According to patent US20090252704A1, “THERAPIES FOR COGNITION AND LEARNING ENHANCEMENT” (priority 2008, published 2009):

Assays:
[1] = system: scopolamine treated mice; test: step through passive avoidance (STPA) in scopolamine treated mice; type: in vivo, Male C57BL/6 mice
Description: Male C57BL/6 mice weighing 20-25 g (6-8 weeks of age) were maintained in a controlled environment (housed at 5 per cage; at 22-25 C.°; 12/12 light/dark cycle) and allowed to acclimate 2 weeks before initiation of the STPA task. The STPA apparatus consists of a box with two compartments light and dark; each of 20×9.5×16.5 cm^3 (Ugo Basile Rat Passive Avoidance Apparatus, customized for mice with chamber inserts). Mice were transported to the testing facility in covered cages and whilst in training or testing phases were housed at 1 or 2 per cage.
STPA Habituation phase: Mice are placed in the light compartment and latency to enter the dark compartment is recorded. The criteria of success is entrance to the dark compartment within 30 sec twice in three trails or three times in five trials; showing the normal aversion of mice to a highly lit space.
STPA Training phase: In acute drug testing, 2 hrs after habituation is complete; 30 min (t=−30) and 20 min (t=−20) prior to training, scopolamine (or saline) and test drug (or vehicle), respectively, are administered. In the drinking water protocol, at t=−30 prior to training, scopolamine (or saline) is administered. Mice are placed into the light compartment at time zero. Upon entry into the dark compartment, an automatic door closes and 2.0 sec shock (0.5 mA) is delivered through the floor grating. […] The number of trials to reach criterion is recorded for assessment of secondary biomarkers, such as analgesia.
STPA Testing phase: At 24 h and 48 h post training, animals are tested for memory retention without any drug administration. The animals are again placed in the light compartment. Latency to enter the dark side is recorded as a measure of memory consolidation, retention and retrieval.
Scopolamine (1 mg/kg; 1 mg/4 ml) is administered ip. Test compound (1 mg/kg, 1 mg/Kg) administered ip.
Dosing—Behavioral Studies: Drugs and vehicle were administered either i.p. for acute studies (1 mg/kg, or as indicated in the figures, in saline), otherwise in drinking water (20 mg/kg/day).
Drinking water dosing: Rodents drink continuously during the active dark cycle and intermittently during the resting light cycle.

[2] = system: animal models of chronic learning and cognition impairment; test: animal models of chronic learning and cognition impairment; type: in vivo; conditions: chronic use

In the case of O=[N+]([O-])O[C@H]1CO[C@H]2[C@@H]1OC[C@H]2O[N+](=O)[O-] [ISDN, isosorbide dinitrate], the “reversal of cognition deficits, comparison (FIG. 4)” value (“reversal … (FIG. 4)” for short) ([1]; STPA, scopolamine treated mice) was “reversal of cognition deficits” and the “effect on learning and cognition” value [2] was “enhance learning and cognition”.
In the case of Cc1ncsc1CCCl [clomethiazole], the “reversal … (FIG. 4)” value ([1]; mouse, in vivo) was “reversal of cognition deficits”.
For Cc1ncsc1CCO[N+](=O)[O-].Cl [GT-1061, 4-methyl-5-(2-nitroxyethyl)thiazole HCl], the “reversal … (FIG. 4)” value ([1]; STPA, scopolamine treated mice) was “reversal of cognition deficits” and the “cognition deficit reversal (FIG. 1, FIG. 2 and FIG. 3)” value ([1]; in drinking water (20 mg/kg/day), STPA, scopolamine 1 mg/kg ip) was “cognition deficit reversal”.
